Experimental data published in PubChem BioAssay AID1963986 (Molecular Pharmacology Branch, DTP, NCI, 2024).

Tested on: 171881-019-R-J1-PDC tumor spheroid viability
Assay: Anticancer human tumor 171881-019-R-J1-PDC patient-derived invasive breast carcinoma cell line growth inhibition [PI3K]
Conditions: spheroids with HUVEC and MSC; for IC50: curve of first compound; for viability, T/C: stronger effect = lower value
In short: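 Tumor cells were combined with HUVEC and MSCs into spheroids, then dosed with PI3K-inhibitor combinations over half-log ranges capped near clinical Cmax or 10 microM.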

[1] = second compound 0.0316 µM, first compound 0.0316 µM
[2] = second compound 0.0316 µM, first compound 0.1 µM
[3] = second compound 0.1 µM, first compound 0.0316 µM
[4] = second compound 0.1 µM, first compound 0.1 µM
[5] = second compound 0.316 µM, first compound 0.0316 µM
[6] = second compound 0.316 µM, first compound 0.1 µM
[7] = second compound 1 µM, first compound 0.0316 µM
[8] = second compound 1 µM, first compound 0.1 µM
[9] = second compound 3.16 µM, first compound 0.0316 µM
[10] = second compound 3.16 µM, first compound 0.1 µM
[11] = second compound 10 µM, first compound 0.0316 µM
[12] = second compound 10 µM, first compound 0.1 µM
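Note: spheroids exposed to compound for 7 days before viability read.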
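Throughout, for viability, T/C: 100% = DMSO vehicle-treated spheroids.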

How did the IC50 (second compound 0.0316 µM) turn out when `CC(=O)c1c(C)c2cnc(Nc3ccc(N4CCNCC4)cn3)nc2n(C2CCCC2)c1=O` + Cc1nc(NC(=O)N2CCCC2C(N)=O)sc1-c1ccnc(C(C)(C)C(F)(F)F)c1 was run?
Its IC50 is over 100 nM.

What about the IC50 (second compound 0.1 µM) of the same molecule?
The IC50 was over 100 nM.

And the IC50 (second compound 0.316 µM)?
Its IC50 is over 100 nM.

What about the IC50 (second compound 1 µM) of the same molecule?
The IC50 was under 0.316 nM.

And the IC50 (second compound 3.16 µM)?
The IC50 was under 0.316 nM.

What about the IC50 (second compound 10 µM) of the same molecule?
The IC50 was under 0.316 nM.

And the viability, T/C (second compound 0.0316 µM, first compound 0.000316 µM)?
The viability, T/C was 106%.

What about the viability, T/C (second compound 0.0316 µM, first compound 0.001 µM) of the same molecule?
Its viability, T/C is 96.3%.

What about the viability, T/C (second compound 0.0316 µM, first compound 0.00316 µM) of the same molecule?
The viability, T/C was 91.2%.

What about the viability, T/C (second compound 0.0316 µM, first compound 0.01 µM) of the same molecule?
Its viability, T/C is 101%.

And the viability, T/C [1]?
The viability, T/C was 105%.

What about the viability, T/C [2] of the same molecule?
Its viability, T/C is 88.6%.

What about the viability, T/C (second compound 0.1 µM, first compound 0.000316 µM) of the same molecule?
Its viability, T/C is 78.9%.

What about the viability, T/C (second compound 0.1 µM, first compound 0.001 µM) of the same molecule?
Its viability, T/C is 79%.

And the viability, T/C (second compound 0.1 µM, first compound 0.00316 µM)?
The viability, T/C was 84.8%.

And the viability, T/C (second compound 0.1 µM, first compound 0.01 µM)?
The viability, T/C was 88.9%.

What about the viability, T/C [3] of the same molecule?
Its viability, T/C is 88.3%.

And the viability, T/C [4]?
Its viability, T/C is 82.6%.

And the viability, T/C (second compound 0.316 µM, first compound 0.000316 µM)?
The viability, T/C was 57.9%.

And the viability, T/C (second compound 0.316 µM, first compound 0.001 µM)?
The viability, T/C was 61.5%.

What about the viability, T/C (second compound 0.316 µM, first compound 0.00316 µM) of the same molecule?
Its viability, T/C is 54.3%.

What about the viability, T/C (second compound 0.316 µM, first compound 0.01 µM) of the same molecule?
Its viability, T/C is 63.2%.

What about the viability, T/C [5] of the same molecule?
The viability, T/C was 63.1%.

And the viability, T/C [6]?
Its viability, T/C is 63.2%.

What about the viability, T/C (second compound 1 µM, first compound 0.000316 µM) of the same molecule?
Its viability, T/C is 33%.

And the viability, T/C (second compound 1 µM, first compound 0.001 µM)?
Its viability, T/C is 33.7%.

And the viability, T/C (second compound 1 µM, first compound 0.00316 µM)?
Its viability, T/C is 37.3%.

And the viability, T/C (second compound 1 µM, first compound 0.01 µM)?
Its viability, T/C is 37.6%.

What about the viability, T/C [7] of the same molecule?
Its viability, T/C is 43.8%.

And the viability, T/C [8]?
The viability, T/C was 38.8%.

What about the viability, T/C (second compound 3.16 µM, first compound 0.000316 µM) of the same molecule?
Its viability, T/C is 14.1%.

What about the viability, T/C (second compound 3.16 µM, first compound 0.001 µM) of the same molecule?
The viability, T/C was 14.3%.

And the viability, T/C (second compound 3.16 µM, first compound 0.00316 µM)?
The viability, T/C was 16.5%.

What about the viability, T/C (second compound 3.16 µM, first compound 0.01 µM) of the same molecule?
Its viability, T/C is 17.3%.

And the viability, T/C [9]?
Its viability, T/C is 18%.

What about the viability, T/C [10] of the same molecule?
Its viability, T/C is 18.4%.

What about the viability, T/C (second compound 10 µM, first compound 0.000316 µM) of the same molecule?
Its viability, T/C is 4.32%.

What about the viability, T/C (second compound 10 µM, first compound 0.001 µM) of the same molecule?
The viability, T/C was 3.84%.

And the viability, T/C (second compound 10 µM, first compound 0.00316 µM)?
The viability, T/C was 4.16%.

And the viability, T/C (second compound 10 µM, first compound 0.01 µM)?
The viability, T/C was 4.4%.

What about the viability, T/C [11] of the same molecule?
Its viability, T/C is 5.31%.

What about the viability, T/C [12] of the same molecule?
Its viability, T/C is 4.87%.

How did the IC50 (second compound 0.0316 µM) turn out when `CCCS(=O)(=O)Nc1ccc(F)c(C(=O)c2c[nH]c3ncc(-c4ccc(Cl)cc4)cc23)c1F` + Cc1nc(NC(=O)N2CCCC2C(N)=O)sc1-c1ccnc(C(C)(C)C(F)(F)F)c1 was run?
The IC50 was 5560 nM.

What about the IC50 (second compound 0.1 µM) of the same molecule?
Its IC50 is 5710 nM.

What about the IC50 (second compound 0.316 µM) of the same molecule?
The IC50 was 4720 nM.

And the IC50 (second compound 1 µM)?
Its IC50 is under 31.6 nM.

And the IC50 (second compound 3.16 µM)?
Its IC50 is under 31.6 nM.

And the IC50 (second compound 10 µM)?
The IC50 was under 31.6 nM.

And the viability, T/C [1]?
Its viability, T/C is 97.5%.

And the viability, T/C [2]?
Its viability, T/C is 91%.

And the viability, T/C (second compound 0.0316 µM, first compound 0.316 µM)?
Its viability, T/C is 97.2%.

And the viability, T/C (second compound 0.0316 µM, first compound 1 µM)?
The viability, T/C was 92.2%.

And the viability, T/C (second compound 0.0316 µM, first compound 3.16 µM)?
The viability, T/C was 86.9%.

What about the viability, T/C (second compound 0.0316 µM, first compound 10 µM) of the same molecule?
Its viability, T/C is 11.7%.

And the viability, T/C [3]?
Its viability, T/C is 92.4%.

What about the viability, T/C [4] of the same molecule?
Its viability, T/C is 99.3%.

What about the viability, T/C (second compound 0.1 µM, first compound 0.316 µM) of the same molecule?
The viability, T/C was 99.3%.

And the viability, T/C (second compound 0.1 µM, first compound 1 µM)?
The viability, T/C was 97.5%.

What about the viability, T/C (second compound 0.1 µM, first compound 3.16 µM) of the same molecule?
The viability, T/C was 91.8%.

What about the viability, T/C (second compound 0.1 µM, first compound 10 µM) of the same molecule?
The viability, T/C was 10.3%.

And the viability, T/C [5]?
The viability, T/C was 57.6%.

What about the viability, T/C [6] of the same molecule?
Its viability, T/C is 60.3%.

What about the viability, T/C (second compound 0.316 µM, first compound 0.316 µM) of the same molecule?
The viability, T/C was 73.7%.

And the viability, T/C (second compound 0.316 µM, first compound 1 µM)?
The viability, T/C was 87.1%.

And the viability, T/C (second compound 0.316 µM, first compound 3.16 µM)?
Its viability, T/C is 82.2%.

And the viability, T/C (second compound 0.316 µM, first compound 10 µM)?
The viability, T/C was 8.31%.

And the viability, T/C [7]?
The viability, T/C was 32.2%.

And the viability, T/C [8]?
The viability, T/C was 36.7%.

And the viability, T/C (second compound 1 µM, first compound 0.316 µM)?
The viability, T/C was 40.8%.

And the viability, T/C (second compound 1 µM, first compound 1 µM)?
The viability, T/C was 49%.

What about the viability, T/C (second compound 1 µM, first compound 3.16 µM) of the same molecule?
Its viability, T/C is 50.2%.

What about the viability, T/C (second compound 1 µM, first compound 10 µM) of the same molecule?
The viability, T/C was 5.09%.

What about the viability, T/C [9] of the same molecule?
Its viability, T/C is 15.2%.

And the viability, T/C [10]?
The viability, T/C was 16.1%.

What about the viability, T/C (second compound 3.16 µM, first compound 0.316 µM) of the same molecule?
Its viability, T/C is 18.9%.

What about the viability, T/C (second compound 3.16 µM, first compound 1 µM) of the same molecule?
Its viability, T/C is 21.9%.

And the viability, T/C (second compound 3.16 µM, first compound 3.16 µM)?
Its viability, T/C is 23.4%.

What about the viability, T/C (second compound 3.16 µM, first compound 10 µM) of the same molecule?
The viability, T/C was 2.52%.

What about the viability, T/C [11] of the same molecule?
Its viability, T/C is 3.53%.

And the viability, T/C [12]?
Its viability, T/C is 3.46%.

And the viability, T/C (second compound 10 µM, first compound 0.316 µM)?
Its viability, T/C is 3.9%.

What about the viability, T/C (second compound 10 µM, first compound 1 µM) of the same molecule?
The viability, T/C was 5.16%.

And the viability, T/C (second compound 10 µM, first compound 3.16 µM)?
Its viability, T/C is 5.53%.

What about the viability, T/C (second compound 10 µM, first compound 10 µM) of the same molecule?
The viability, T/C was 2.11%.
